Measurements as given in PubChem BioAssay AID192 (DTP/NCI, 2004).
“And” between values parts separate entries of the source, which are not always exact repeats. Equal values may be shown once. Toxic doses and inconclusive results are not listed. The calls were made as follows: active = survival T/C of 150% or more; inactive = T/C below 125% in these data.

Tested on: BDF1 mice, B16 melanoma ip, median survival T/C
Assay: NCI In Vivo Anticancer Drug Screen. Data for tumor model B16 Melanoma (intraperitoneal) in B6D2F1 (BDF1) mice
Settings: endpoint: median survival time, higher = longer survival
Summary of the method: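 Mice with transplantable tumors; drug vs vehicle groups; endpoint survival or tumor size; value = T/C.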

[1] = dose: 100.0 mg/kg/injection, schedule: Q01DX009 (ip), vehicle: Klucel (hydroxypropylcellulose) (HPC)
[2] = dose: 200.0 mg/kg/injection, schedule: Q01DX009 (ip), vehicle: Klucel (hydroxypropylcellulose) (HPC)
[3] = dose: 400.0 mg/kg/injection, schedule: Q01DX009 (ip), vehicle: Klucel (hydroxypropylcellulose) (HPC)
[4] = dose: 12.5 mg/kg/injection, schedule: Q01DX009 (ip), vehicle: saline with Tween-80
[5] = dose: 25.0 mg/kg/injection, schedule: Q01DX009 (ip), vehicle: saline with Tween-80
[6] = dose: 50.0 mg/kg/injection, schedule: Q01DX009 (ip), vehicle: saline with Tween-80
[7] = dose: 200.0 mg/kg/injection, schedule: Q01DX009 (ip), vehicle: saline with Tween-80
[8] = dose: 100.0 mg/kg/injection, schedule: Q01DX009 (ip), vehicle: saline
[9] = dose: 200.0 mg/kg/injection, schedule: Q01DX009 (ip), vehicle: saline
[10] = dose: 100.0 mg/kg/injection, schedule: Q04DX003 (ip), vehicle: Klucel (hydroxypropylcellulose) (HPC)
[11] = dose: 400.0 mg/kg/injection, schedule: Q04DX003 (ip), vehicle: Klucel (hydroxypropylcellulose) (HPC)
[12] = dose: 2.0 mg/kg/injection, schedule: Q01DX009 (ip), vehicle: saline
[13] = dose: 4.0 mg/kg/injection, schedule: Q01DX009 (ip), vehicle: saline
[14] = dose: 50.0 mg/kg/injection, schedule: Q01DX009 (ip), vehicle: Klucel (hydroxypropylcellulose) (HPC)
[15] = dose: 100.0 mg/kg/injection, schedule: Q01DX009 (ip), vehicle: saline with Tween-80
[16] = dose: 50.0 mg/kg/injection, schedule: Q01DX009 (ip), vehicle: saline
[17] = dose: 25.0 mg/kg/injection, schedule: Q01DX009 (ip), vehicle: Klucel (hydroxypropylcellulose) (HPC)
[18] = dose: 5.0 mg/kg/injection, schedule: Q01DX009 (ip), vehicle: Klucel (hydroxypropylcellulose) (HPC)

Measured: T/C

CN(C)NCCN1CCN(CCCN2c3ccccc3Sc3ccc(C(F)(F)F)cc32)CC1
inactive: dose: 3.75 mg/kg/injection, schedule: Q01DX009 (ip), vehicle: saline 93 % of control | dose: 7.5 mg/kg/injection, schedule: Q01DX009 (ip), vehicle: saline 112 % of control

CCCCCc1ccccc1
inactive: [1] 106 % of control | [2] 110 % of control | [3] 90 % of control

CC1(C)COCN1COC1CCCCC1
inactive: [4] 100 % of control | [5] 105 % of control and 115 % of control | [6] 105 % of control and 119 % of control | [7] 110 % of control

CN[C@@H]1[C@H](O)[C@H](NC)[C@H]2O[C@@]3(O)C(=O)C[C@@H](C)O[C@H]3O[C@@H]2[C@H]1O
inactive: [8] 108 % of control | [9] 103 % of control | dose: 400.0 mg/kg/injection, schedule: Q01DX009 (ip), vehicle: saline 113 % of control

CCC1(CC)COC(=O)NC1=O
inactive: dose: 1.56 mg/kg/injection, schedule: Q01DX009 (ip), vehicle: saline 105 % of control | dose: 3.12 mg/kg/injection, schedule: Q01DX009 (ip), vehicle: saline 97 % of control | dose: 6.25 mg/kg/injection, schedule: Q01DX009 (ip), vehicle: saline 105 % of control | dose: 12.5 mg/kg/injection, schedule: Q01DX009 (ip), vehicle: saline 107 % of control

CNC(c1ccncc1)C(NC)c1ccncc1 (stereo not drawn)
inactive: [10] 95 % of control | [11] 91 % of control

Nc1ncnc2c(C3OC(CO)C(O)C3O)[nH]nc12 (stereo not drawn)
inactive: dose: 1.0 mg/kg/injection, schedule: Q01DX009 (ip), vehicle: saline 113 % of control | [12] 122 % of control | [13] 122 % of control | dose: 8.0 mg/kg/injection, schedule: Q01DX009 (ip), vehicle: saline 107 % of control

CCCC(=O)c1ccc(OC)c(OC)c1
inactive: [14] 86 % of control | [1] 93 % of control | [2] 96 % of control

C=C1N(C)c2ccccc2C1(C)C
inactive: dose: 1.0 mg/kg/injection, schedule: Q01DX009 (ip), vehicle: saline with Tween-80 104 % of control | dose: 2.0 mg/kg/injection, schedule: Q01DX009 (ip), vehicle: saline with Tween-80 100 % of control | dose: 4.0 mg/kg/injection, schedule: Q01DX009 (ip), vehicle: saline with Tween-80 98 % of control | dose: 13.0 mg/kg/injection, schedule: Q01DX009 (ip), vehicle: saline with Tween-80 117 % of control | dose: 19.0 mg/kg/injection, schedule: Q01DX009 (ip), vehicle: saline with Tween-80 98 % of control | dose: 29.0 mg/kg/injection, schedule: Q01DX009 (ip), vehicle: saline with Tween-80 104 % of control | dose: 45.0 mg/kg/injection, schedule: Q01DX009 (ip), vehicle: saline with Tween-80 98 % of control

CCNc1nc(Cl)nc(NC(C)C)n1
inactive: [6] 100 % of control | [15] 102 % of control | [7] 104 % of control

CCOc1ccccc1NC(=O)COc1ccc(Cl)cc1
inactive: [1] 106 % of control | [2] 96 % of control | [3] 100 % of control

Cn1c(=O)c2c(ncn2C)n(C)c1=O
inactive: [16] 116 % of control | [8] 103 % of control | [9] 109 % of control

CN(C)c1c(-c2ccccc2)cc(-c2ccccc2)[nH]c1=O
inactive: [6] 92 % of control | [15] 86 % of control

CCN(CCP(c1ccccc1)c1ccccc1)CCP(c1ccccc1)c1ccccc1
inactive: dose: 3.13 mg/kg/injection, schedule: Q01DX009 (ip), vehicle: saline with Tween-80 119 % of control | dose: 6.25 mg/kg/injection, schedule: Q01DX009 (ip), vehicle: saline with Tween-80 113 % of control | [4] 90 % of control and 115 % of control | dose: 12.5 mg/kg/injection, schedule: Q04DX003 (ip), vehicle: saline with Tween-80 104 % of control | [5] 100 % of control | dose: 25.0 mg/kg/injection, schedule: Q04DX003 (ip), vehicle: saline with Tween-80 107 % of control | dose: 50.0 mg/kg/injection, schedule: Q04DX003 (ip), vehicle: saline with Tween-80 109 % of control

Cn1c2ccccc2c(=O)c2ccc(Cl)cc21
inactive: [17] 97 % of control | [14] 97 % of control | [1] 91 % of control

CCC(CC)COC(=O)c1ccccc1C(=O)OCC(CC)CC
inactive: [4] 87 % of control

COc1cc2cc3c4cc(OC)c(OC)cc4cc[n+]3c(C)c2cc1OC
inactive: dose: 400.0 mg/kg/injection, schedule: Q01DX009 (ip), vehicle: saline sonified 86 % of control

CCCCCCCCCCCCCCCCC/C=C1\CC(=O)OC1=O
inactive: [5] 97 % of control and 99 % of control | [6] 91 % of control and 105 % of control | [15] 92 % of control

CCCC(=O)Nc1ncnc2c1ncn2C1OC2COP(=O)(O)OC2C1OC(=O)CCC (stereo not drawn)
inactive: [16] 100 % of control | [8] 94 % of control | [9] 89 % of control

CC(=O)CC(=O)N1CCC(C)CC1
inactive: [1] 110 % of control | [2] 112 % of control | [3] 115 % of control

Oc1ccc2ccccc2c1Cc1c(O)ccc2ccccc12
inactive: [5] 93 % of control | [6] 91 % of control | [15] 94 % of control | [7] 90 % of control

O=C(Nc1cccc(C(F)(F)F)c1)c1cccc(C(=O)Nc2cccc(C(F)(F)F)c2)c1
inactive: dose: 12.5 mg/kg/injection, schedule: Q01DX009 (ip), vehicle: Klucel (hydroxypropylcellulose) (HPC) 101 % of control | [17] 106 % of control | [14] 108 % of control

CC1OC(n2ccc(NC(=O)c3ccc(NC(=O)C(C)(N)CO)cc3)nc2=O)CC(O)C1OC1OC(C)C(N(C)C)C(O)C1O (stereo not drawn)
inactive: dose: 2.5 mg/kg/injection, schedule: Q01DX009 (ip), vehicle: Klucel (hydroxypropylcellulose) (HPC) 117 % of control | [18] 102 % of control | dose: 10.0 mg/kg/injection, schedule: Q01DX009 (ip), vehicle: Klucel (hydroxypropylcellulose) (HPC) 103 % of control

CCC1=C(C[C@H]2NCCc3cc(OC)c(OC)cc32)C[C@H]2c3cc(OC)c(OC)cc3CCN2C1
inactive: dose: 2.0 mg/kg/injection, schedule: Q01DX009 (ip), vehicle: Klucel (hydroxypropylcellulose) (HPC) 114 % of control | [12] 103 % of control and 111 % of control | [13] 106 % of control and 107 % of control | dose: 5.0 mg/kg/injection, schedule: Q01DX005 (ip), vehicle: saline 118 % of control | [18] 116 % of control

C/C=C\C1OC1(C)c1cc(=O)c2c(C)cc3c(c2o1)C(=O)c1c(O)c(C2CC(C)(N(C)C)C(OC(C)=O)C(C)O2)cc(C2CC(N(C)C)C(O)C(C)O2)c1C3=O (stereo not drawn)
inactive: dose: 0.1 mg/kg/injection, schedule: Q01DX009 (ip), vehicle: saline 100 % of control | dose: 0.2 mg/kg/injection, schedule: Q01DX009 (ip), vehicle: saline 100 % of control | dose: 0.35 mg/kg/injection, schedule: Q01DX009 (ip), vehicle: saline with Tween-80 88 % of control | dose: 0.4 mg/kg/injection, schedule: Q01DX009 (ip), vehicle: saline 100 % of control | dose: 0.7 mg/kg/injection, schedule: Q01DX009 (ip), vehicle: saline with Tween-80 95 % of control | dose: 0.8 mg/kg/injection, schedule: Q01DX009 (ip), vehicle: saline 106 % of control

Clc1ccccc1C=Nc1ccc2c(c1)Cc1ccccc1-2
inactive: [1] 96 % of control | [2] 96 % of control | [3] 87 % of control

COC(=O)C1C2OC(C(Br)C2Br)C1C(=O)OC (stereo not drawn)
inactive: [10] 103 % of control | dose: 200.0 mg/kg/injection, schedule: Q04DX003 (ip), vehicle: Klucel (hydroxypropylcellulose) (HPC) 105 % of control | [11] 101 % of control

O=C(Oc1cccc(OC(=O)c2ccc(Cl)cc2)c1)c1ccc(Cl)cc1
inactive: [1] 89 % of control | [2] 89 % of control

COC(=O)[C@@H]1[C@H](O)[C@H](C)[C@H](O)[C@H](C)/C=C\C=C(C)C(=O)Nc2c(C)c(OC(C)=O)c3c(c2O)C(=O)C(C)=C2OCOC(=C23)C(C)=C[C@@](C)(O)[C@H](O)[C@@H](C)[C@H]1OC(C)=O
inactive: [1] 104 % of control | dose: 100.0 mg/kg/injection, schedule: Q01DX009 (ip), vehicle: carboxymethylcellulose (CMC) 103 % of control | [2] 94 % of control | dose: 200.0 mg/kg/injection, schedule: Q01DX009 (ip), vehicle: carboxymethylcellulose (CMC) 123 % of control | dose: 400.0 mg/kg/injection, schedule: Q01DX009 (ip), vehicle: carboxymethylcellulose (CMC) 97 % of control
